Patent US20030109468A1, “Novel compounds that enhance dimerization of the subunits of HIV-1 reverse transcriptase having mutations associated with resistance to nonnucleoside reverse transcriptase inhibitors” (priority 2001, published 2003)
Entries after “also recorded” stand apart in the source; their conditions may differ. Like-named read-outs stand apart in the source and are kept apart here.

How the values were obtained:
[1] = molecular target: T1, lexA87-66 and Gal4AD-51 (p66 and p51 subunits of the HIV-1 RT) (Human immunodeficiency virus type 1 group M subtype B, UniProt P12497); type: cell-based
T1 construct: p66 corresponds to codons 1-560 and p51 corresponds to codons 1-440 in the RT gene; expressed in transfected cells; host or cells: Saccharomyces cerevisiae CTY10-5d
Procedure: Transformation of yeast and the qualitative β-galactosidase (β-gal) colony lift assay were as published (19). Quantification of protein-protein interactions was determined using the β-gal liquid assay performed on permeabilized yeast grown from three independent transformants using orthonitrophenyl-β-D-galactopyranoside as substrate (19).
(§1) CTY10-5d transformed constructs expressing p66 bait and p51 prey fusions were grown overnight to stationary phase in synthetic complete medium without histidine and leucine and containing 2% glucose (SC-His-Leu). […] Yeast were grown with aeration at 30° C. to OD600=0.5. The equivalent of 1 OD600 unit was pelleted for each treatment and subjected to a quantitative _-gal liquid assay.
To test the effects of NNRTIs on the association of the RT polypeptides we used a yeast genetic assay that measures RT heterodimerization (22). In this assay yeast expressing the p66 subunit of the HIV-1 RT fused to the C-terminus of lexa 87 (lexA87-66) and the p51 subunit fused to the Gal4AD (Gal4AD-51) constitutively interact, resulting in the activation of the expression from an integrated Lac Z reporter gene. To test for the effects of the NNRTIs on this interaction, 10 drugs representing 7 different NNRTI classes were added to the culture medium during growth of the yeast and β-gal levels were determined.

p66-His and GST-p51 = molecular target: T2, p66-His and GST-p51 (Human immunodeficiency virus type 1 group M subtype B, UniProt P04585); type: binding, HIV-1
T2 construct: p66 corresponds to codons 1-560 and p51 corresponds to codons 1-440 in the RT gene; made in house; host or cells: E. coli M15 (p66-His) and BL21 (GST-p51), unpurified lysates
Procedure: Plasmids expressing wild-type and p66 mutants with a histidine tag at the C-terminus (p66-His) were constructed by cloning the p66 coding region into the SphI -BglII site of pQE-70 (Qiagen, Chatsworth, Calif.). […] Glutathione S-transferase tagged p51 (GST-p51) was prepared by subcloning the BamHI-SalI fragment from p51HXGADNOT into pGEX5X-3 (Amersham Pharmacia). Cells were induced and then lysed by the addition of 1 mg/ml of lysozyme to 1 ml of lysis buffer [50 mM sodium phosphate buffer (pH 7.8), 500 mM NaCl, 0.5% Nonidet P-40, 5 mM DTT, and 1 μg/ml each of pepstatin A, aprotinin and leupeptin] and clarified. Lysates were combined and incubated for 16 hrs at 4° C. The heterodimer was captured on Glutathione Sepharose 4B beads and unbound subunits were removed by washing with lysis buffer. Heterodimer bound to beads were resolved by SDS/PAGE. For quantification of RT activity, dimers were eluted from beads with 10 mM reduced glutathione in 50 mM Tris (pH 8.0). Samples were assayed for DNA polymerase activity on homopolymeric template-primers for various times, and the activity was determined from the initial slope of the linear phase of the time course.

p66/p51 heterodimer = molecular target: T3, p66/p51 heterodimer (Human immunodeficiency virus type 1 group M subtype B, UniProt P12497); settings: cited from earlier work
T3 construct: The HIV-1 RT is an asymmetric dimer consisting of p66 and p51 polypeptides

[2] = molecular target: HIV-1 RT with Y181C mutation in the p66 subunit (Human immunodeficiency virus type 1 group M subtype B, UniProt P12497, Y768C); settings: cited from earlier work
[3] = molecular target: lexA87-66Y181C and wild type Gal4AD-51 (Human immunodeficiency virus type 1 group M subtype B, UniProt P12497, Y768C); type: cell-based, HIV-1; settings: yeast grown in the presence of drug
Procedure: as §1

HIV-1 = settings: cited from earlier work
[4] = test system: moloney murine leukemia virus reverse transcriptase with elongation factor release factor 1 and other unrelated pairs; experiment: Y2H specificity control, unrelated protein-protein interaction pairs; type: cell-based
Source text: (§2) The specificity of the β-gal enhancement by NNRTIs was investigated. […].

[5] = molecular target: T4, HIV-1 RT p66 bait and p51 prey fusions with the W401A change (Human immunodeficiency virus type 1 group M subtype B, UniProt P12497, W988A); type: cell-based; settings: W401A in one or both subunits
T4 construct: p66 corresponds to codons 1-560 and p51 corresponds to codons 1-440 in the RT gene; expressed in transfected cells; host or cells: Saccharomyces cerevisiae CTY10-5d
Procedure: as §1

lexA87 and Gal4AD = experiment: Y2H specificity control, empty vectors pSH21 and pGADNOT; type: cell-based; settings: serial dilutions, even in the presence of 15 μM of drug
Source text: as §2

[6] = molecular target: p66W401A-His and GST-p51W401A (Human immunodeficiency virus type 1 group M subtype B, UniProt P12497, W988A); experiment: In vitro heterodimerization in bacterial lysates, W401A mutant
Procedure: The heterodimerization of bacterially expressed wild-type p66-His and GST-p51 (or mutants) was assessed in bacterial lysates as described previously (22). […] Lysates were washed 4 times with lysis buffer using a centricon-YM-50 filter device (Millipore Corporation, Bedford, Mass.) to remove unbound drug. 5 μg of the corresponding RT subunit was applied to the washed lysates (in 500 μl) and incubated for 1.5 hr at 40C. Heterodimers were captured onto beads (22), resolved by SDS/PAGE and detected using RT antibodies (monoclonal antibody 5B2) (31).

[7] = molecular target: T5, lexA87-66W401A and Gal4AD-HA-51W401A (Human immunodeficiency virus type 1 group M subtype B, UniProt P12497, W988A); experiment: Coimmunoprecipitation of p66 and p51 in yeast lysates, W401A mutant; type: cell-based, HIV-1
T5 construct: p66 corresponds to codons 1-560 and p51 corresponds to codons 1-440 in the RT gene; expressed in transfected cells; host or cells: Saccharomyces cerevisiae CTY10-5d
Source text: […]; Preparation of protein extracts and immunoprecipitation were as previously described (30) except for the use of anti-HA.11 monoclonal antibodies (clone 16B12; Covance, Princeton, N.J.) and Protein G-PLUS agarose beads (Santa Cruz Biotechnology; Santa Cruz, Calif.). Samples were resolved by SDS-PAGE. The lexA87-66 fusion protein was probed using monoclonal antibodies 7E5 which specifically detects p66 (31).
To directly test for induced heterodimerization by NNRTIs we subjected lysates from yeast expressing dimerization defective mutants to coimmunoprecipitation. […]. Hemagglutinin (HA) antibodies were used to immunoprecipitate the p51 prey and the presence of any bound p66 bait was then detected using anti-p66 specific antibodies. For coimmunoprecipitation of the p66 bait fusions, samples were divided into two with one part processed without added NNRTI while the other was maintained in drug at the same concentration used during growth of yeast. […] […].

RT heterodimer = molecular target: T6, RT heterodimer (Human immunodeficiency virus type 1 group M subtype B, UniProt P12497); settings: cited from earlier work
T6 construct: The HIV-1 RT is an asymmetric dimer consisting of p66 and p51 polypeptides

HIV-1 RT = HIV-1 RT (Human immunodeficiency virus type 1 group M subtype B, UniProt P12497); type: biochemical; settings: exogenous RT assay, results not shown
[8] = molecular target: T7, HIV-1 RT p66 bait and p51 prey fusions with the L234A change (Human immunodeficiency virus type 1 group M subtype B, UniProt P04585, L821A); type: cell-based; settings: L234A in one or both subunits
T7 construct: p66 corresponds to codons 1-560 and p51 corresponds to codons 1-440 in the RT gene; expressed in transfected cells; host or cells: Saccharomyces cerevisiae CTY10-5d
Procedure: as §1

[9] = molecular target: T8, lexA87-66L234A and Gal4AD-HA-51L234A (Human immunodeficiency virus type 1 group M subtype B, UniProt P04585, L821A); type: cell-based, HIV-1; settings: yeast grown with efavirenz 1.6 μM or UC781 16 μM, compared to no drug
T8 construct: p66 corresponds to codons 1-560 and p51 corresponds to codons 1-440 in the RT gene; expressed in transfected cells; host or cells: Saccharomyces cerevisiae CTY10-5d
Source text: Samples were resolved by SDS-PAGE.
Hemagglutinin (HA) antibodies were used to immunoprecipitate the p51 prey and the presence of any bound p66 bait was then detected using anti-p66 specific antibodies. For coimmunoprecipitation of the p66 bait fusions, samples were divided into two with one part processed without added NNRTI while the other was maintained in drug at the same concentration used during growth of yeast.

[10] = yeast expressing lexA87-66 and Gal4AD-51 grown with drug
[11] = bacterial lysates, overnight at 4° C.

For `CC(C)Nc1cccnc1N1CCN(C(=O)c2cc3cc(NS(C)(=O)=O)ccc3[nH]2)CC1` [delavirdine, piperazine, 1-[3-[(1-methyl-ethyl)amino]-2-pyridinyl]-4-[[5-[(methysulfonyl)amino]-1H-indol-2-yl]carbonyl]-, monomethanesulfonate], the “enhancement of β-gal activity, in words / relative potency” value [1] was “devoid of P-gal enhancing activity” and the “enhancement of dimerization of GST-p51 and p66-His in vitro, in words” value (shortened to “enhancement of dimerization … in words”) (p66-His and GST-p51) was “inactive in vitro”.
For “2′,5′-bis-O-(tert-butylidimethylsilyl) -3′-spiro-5″-4″-amino-1″,2″-oxothiole-2″,2″-dioxide)]-b-D- pentofuranosyl [TSAO]”, the “inhibition of β-gal activity in the Y2H system” value ([1]; preliminary tests, data not shown, uptake by yeast not ruled in) is given as “no inhibition of β-gal activity”, the “effect on heterodimerization in in vitro binding assays” value (p66-His and GST-p51; preliminary tests, data not shown) is given as “reduce heterodimerization” and the “destabilization of the p66/p51 heterodimer” value (p66/p51 heterodimer) is given as “destabilization of the p66/p51 heterodimer; also recorded: destabilize the p66/p51 heterodimer”.
In the case of `Cc1ccnc2c1NC(=O)c1cccnc1N2C1CC1` [nevirapine, 11-cyclopropyl-5,11,-dihydro-4-methyl-6H-dipyrido[3,2-b:2′3′-][1,4] diazepin-6-one], the “increase in resistance conferred by Y181C” value [2] is listed as greater than 100 fold and the “β-gal enhancement with Y181C in the p66 bait” value [3] is listed as “totally negated the enhancement effect”.
For `COc1ccc2c(c1)N(C(=O)OC(C)C)[C@@H](CSC)C(=S)N2` [HBY 097, (S)-4-isopropoxycarbonyl-6-methoxy-3-(methylthiomethyl)-3,4-dihydroquinoxaline-2(1H)-thione], the “inhibition of HIV-1 replication in vitro” value (HIV-1) is given as “extremely potent inhibitors” and the “enhancement of β-gal activity, in words / relative potency” value [1, 10] is given as “most potent”.
For `O=C1Nc2ccc(Cl)cc2[C@@](C#CC2CC2)(C(F)(F)F)O1` [efavirenz, (S)6-chloro-4(cyclopropylethynyl)-1,4-dihydro-4-(trifluoromethyl)-2H-3,1-benzoxazin-2-one], the “effect on β-gal activity of unrelated protein-protein interaction pairs” value [4] was “no enhancement or inhibition of β-gal activity”, the “enhancement of β-gal activity, W401A mutant, in words” value [5] was “dramatic increase in β-gal activity” and the “increase in β-gal activity, empty vectors” value (lexA87 and Gal4AD) was “no increase in β-gal activity”. The “molar excess of drug giving a significant increase in dimer formation, W401A” value [6] was 10 fold molar excess, the “heterodimer in lysates of yeast grown without drug, drug added during coimmunoprecipitation, W401A” value [7] was “significantly more heterodimer present” and the “p66 bait coimmunoprecipitated with p51 prey, W401A” value [7] was “clear increase”. The “β-gal enhancement with Y181C in the p66 bait” value [3] was “significant level of β-gal enhancement was still retained” and the “binding to the RT heterodimer” value (RT heterodimer) was “bind very tightly”.
For `CC(C)OC(=O)c1cc(NC(=S)OC(C)C)ccc1Cl` [UC38], the “concentration of drug that mediates a 5-fold increase in β-gal activity, rank” value ([1]; Y2H assay, results not shown) was “least active” and the “RT inhibitory activity (50% inhibitory concentration), rank” value (HIV-1 RT) was “least active”.
For `CC(C)=CCOc1cc(NC(=S)c2ccoc2C)ccc1Cl` [UC781, N-[4-chloro-3-(3-methyl-2-butenyloxy)phenyl]-2-methyl-3-furancarbothioamide], the “inhibition of HIV-1 replication in vitro” value (HIV-1) is given as “extremely potent inhibitors”, the “enhancement of β-gal activity, W401A mutant, in words” value [5] is given as “could also enhance the β-gal activity” and the “enhancement of β-gal activity, L234A mutant, in words” value [8] is given as “no enhancement”. For the same molecule, the “enhancement of β-gal activity, in words / relative potency” value [1, 10] was “second most potent drug”, the “p66 bait coimmunoprecipitated with p51 prey, W401A” value ([7]; yeast grown with efavirenz 1.6 μM or UC781 16 μM, compared to no drug) was “heterodimer formation” and the “enhancement of dimerization … in words” value (p66-His and GST-p51; [11]) was “poor dimerization inducers”. For the same molecule, the “p66 bait coimmunoprecipitated with p51 prey, L234A” value [9] was “not for the L234A mutant”, the “binding to the RT heterodimer” value (RT heterodimer) was “bind very tightly” and the “dissociation rates (Koff)” value (RT heterodimer) was “very slow dissociation rates”.
With `Cc1occc1C(=S)Nc1ccc(Cl)c(/C=N/OC(C)(C)C)c1` [UC10] the “enhancement of dimerization … in words” value (p66-His and GST-p51; [11]) was “poor dimerization inducers”.
In the case of `CCn1c(=O)c(C)cn([C@@H]2O[C@H](CO[Si](C)(C)C(C)(C)C)C3(OS(=O)(=O)C=C3N)[C@H]2O[Si](C)(C)C(C)(C)C)c1=O` (stereo partly drawn) [TSAOe^3T], the “destabilization of the p66/p51 heterodimer” value (p66/p51 heterodimer) is given as “more modest destabilization only detectable in the presence of denaturants”.
